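How tested: cells in 96-well plates exposed to compound for 48 hours at five concentrations. Abbreviation: GI50, concentration required for 50% inhibition of growth.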 Active and inactive are the calls of the source. Cut-off read from the data, not from the text of the source: active = GI50 up to about 1.1 µM and inactive = higher.
Key:
Test in all cases: NCI-60 cell line screen, 48 h
HT-29 = tested on: HT-29
CCRF-CEM = tested on: CCRF-CEM
SNB-75 = tested on: SNB-75
Hs-578T = tested on: Hs-578T
MDA-N = tested on: MDA-N
NCI-H522 = tested on: NCI-H522
A498 = tested on: A498
HOP-92 = tested on: HOP-92
SNB-19 = tested on: SNB-19
LOX IMVI = tested on: LOX IMVI
UACC-62 = tested on: UACC-62
HL-60 = tested on: HL-60
UACC-257 = tested on: UACC-257
HCC 2998 = tested on: HCC 2998
K562 = tested on: K562
OVCAR-8 = tested on: OVCAR-8
T47D = tested on: T47D
CAKI-1 = tested on: CAKI-1
BT-549 = tested on: BT-549
HCT-116 = tested on: HCT-116

Measured: GI50

Cc1ccc(S(=O)(=O)N2CCNCCN(S(=O)(=O)c3ccc(C)cc3)CCN(S(=O)(=O)c3ccc(C)cc3)CC2)cc1
inactive: HT-29 > 100 µM | CCRF-CEM > 100 µM | SNB-75 54.3 µM | Hs-578T > 100 µM | MDA-N > 100 µM | NCI-H522 > 100 µM | A498 > 100 µM | HOP-92 70.8 µM | SNB-19 > 100 µM | LOX IMVI > 100 µM | UACC-62 > 100 µM | HL-60 > 100 µM | UACC-257 > 100 µM | HCC 2998 > 100 µM | K562 > 100 µM | OVCAR-8 > 100 µM | T47D > 100 µM | CAKI-1 > 100 µM | BT-549 > 100 µM | HCT-116 > 100 µM

COc1nc2nccnc2c(=O)n1C
inactive: HT-29 > 10 µM | CCRF-CEM > 10 µM | SNB-75 > 10 µM | Hs-578T > 10 µM | MDA-N > 10 µM | NCI-H522 > 10 µM | A498 > 10 µM | HOP-92 > 10 µM | SNB-19 > 10 µM | LOX IMVI > 10 µM | UACC-62 > 10 µM | HL-60 > 10 µM | UACC-257 > 10 µM | HCC 2998 > 10 µM | K562 > 10 µM | OVCAR-8 > 10 µM | T47D > 10 µM | CAKI-1 > 10 µM | BT-549 > 10 µM | HCT-116 > 10 µM

Source: ChEMBL document CHEMBL1201862, “PubChem BioAssay data set” (2004)
